Among the test systems are U251 CNS; SK-MEL-5 melanoma; HCT-15 colon; CCRF-CEM leukemia; SR leukemia; HCT-116 colon; UACC-257 melanoma; MDA-MB-435; IGROV1 ovarian; BT-549 breast.
Test in all cases: NCI tumour cell line growth inhibition, 48 h

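Test compounds were applied to cells in 96-well plates for 48 hours at 5 doses. GI50 is the concentration that inhibits growth by half. The concentration for full growth arrest is given as TGI.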

On to `COc1cc2c(cc1OC)-c1ncc3cc(OC)c(OC)cc3c1C2`, for which the GI50 in the assay with U251 CNS is above 50 µM; in the assay with SK-MEL-5 melanoma, above 50 µM; in the assay with HCT-15 colon, above 50 µM; in the assay on CCRF-CEM leukemia it was 25.9 µM; in the assay on SR leukemia it was 31.8 µM; with HCT-116 colon, above 50 µM. Further, the results for the GI50 in the assay on UACC-257 melanoma, with MDA-MB-435 and in the assay with IGROV1 ovarian were above 50 µM, above 50 µM and 20.2 µM, respectively. For the same compound, the TGI in the assay on U251 CNS, with SK-MEL-5 melanoma, in the assay on HCT-15 colon, in the assay with CCRF-CEM leukemia, in the assay with SR leukemia and with HCT-116 colon was above 50 µM each time. Moreover, the TGI in the assay with UACC-257 melanoma, in the assay on MDA-MB-435 and with IGROV1 ovarian was above 50 µM in each case.
For `CCOC(=O)NC(=O)c1cn(C2OC(COC(=O)CCCCCCCCC(=O)OCC3OC(n4cc(C(=O)NC(=O)OCC)c(=O)[nH]c4=O)C4OC(C)(C)OC34)C3OC(C)(C)OC32)c(=O)[nH]c1=O` (stereo not drawn), the TGI in the assay with SK-MEL-5 melanoma, with HCT-15 colon, in the assay with CCRF-CEM leukemia, in the assay with SR leukemia, in the assay on HCT-116 colon and in the assay with UACC-257 melanoma was above 100 µM each time. In the assay with IGROV1 ovarian, this compound gave a TGI above 100 µM.
On to `CCCCCCCCCCCCC(NC(C)=O)(C(=O)OCC)C(=O)OCC`, for which the GI50 in the assay with U251 CNS was 12.4 µM; with SK-MEL-5 melanoma, 3.87 µM; with HCT-15 colon, 9.38 µM; in the assay with CCRF-CEM leukemia, 16.8 µM; in the assay on SR leukemia, 6.94 µM; in the assay with HCT-116 colon it was 5.83 µM. Also, the GI50 with UACC-257 melanoma was 11.7 µM; in the assay with MDA-MB-435, 12.6 µM; in the assay with IGROV1 ovarian, 12.6 µM. For the same compound, the TGI with U251 CNS was 28.5 µM; in the assay with SK-MEL-5 melanoma it was 16 µM; in the assay on HCT-15 colon, 23 µM; with CCRF-CEM leukemia it was 41.6 µM; with SR leukemia, 48.2 µM; with HCT-116 colon, 19.2 µM. The TGI in the assay on UACC-257 melanoma was 26.1 µM; in the assay with MDA-MB-435, 31.7 µM; with IGROV1 ovarian, 37.2 µM.
With `O=C(COC(=O)c1cccc2c(=O)c3ccccc3[nH]c12)Nc1ccc(S(=O)(=O)Nc2ncccn2)cc1`, the TGI with U251 CNS is 56.3 µM; in the assay with SK-MEL-5 melanoma, above 100 µM; in the assay with HCT-15 colon, above 100 µM; in the assay on CCRF-CEM leukemia it was 67.4 µM; in the assay on SR leukemia it was 91 µM; with HCT-116 colon it was above 100 µM. In addition, the TGI with UACC-257 melanoma and with IGROV1 ovarian was above 100 µM each time.
As for `O=C(CC1SC(=Nc2ccccc2Cl)NC1=O)Nc1ccc(Cl)cc1` (stereo not drawn), the TGI in the assay with U251 CNS was above 100 µM; in the assay with SK-MEL-5 melanoma, above 100 µM; in the assay on HCT-15 colon, 30.8 µM; in the assay on CCRF-CEM leukemia, above 100 µM; in the assay on SR leukemia, 69.9 µM; in the assay with HCT-116 colon it was above 100 µM. Also, the TGI with UACC-257 melanoma and in the assay on IGROV1 ovarian was above 100 µM in each case.
Regarding `CC1=CC2=C(C#N)C(=O)OC2(C)C(c2ccccc2)C1` (stereo not drawn), the TGI in the assay on U251 CNS, in the assay on HCT-15 colon, with HCT-116 colon, in the assay on UACC-257 melanoma, in the assay on MDA-MB-435 and in the assay on IGROV1 ovarian was above 100 µM each time. In addition, in the assay on BT-549 breast, the TGI was above 100 µM.
Consider `COc1cc2ccc3c4cc(OC)c(OC(C)C)cc4c[n+](C)c3c2cc1OC`, for which the TGI in the assay with U251 CNS, in the assay on SK-MEL-5 melanoma, with HCT-15 colon, in the assay with CCRF-CEM leukemia, in the assay with SR leukemia and with HCT-116 colon was above 100 µM in each case. In addition, the TGI in the assay with UACC-257 melanoma and in the assay on IGROV1 ovarian was above 100 µM each time.
On to `CCN(CC)/[N+]([O-])=N/OCC(C)O` (stereo not drawn), for which the TGI with U251 CNS, in the assay with SK-MEL-5 melanoma, with HCT-15 colon, with CCRF-CEM leukemia, in the assay with SR leukemia and in the assay on HCT-116 colon was above 100 µM in each case. Besides, the TGI in the assay with UACC-257 melanoma and in the assay with IGROV1 ovarian was above 100 µM in each case.
On to `CNC(=S)N(C1CCCCC1)C1CCCCC1`, for which the TGI with U251 CNS, in the assay with SK-MEL-5 melanoma, in the assay on HCT-15 colon, with CCRF-CEM leukemia, with SR leukemia and with HCT-116 colon was above 100 µM in each case. Also, the TGI in the assay with UACC-257 melanoma, in the assay on MDA-MB-435 and in the assay with IGROV1 ovarian was above 100 µM throughout.
As to `Cn1cc2ccccc2c1-c1nc(F)nc(Nc2ccc(N)cc2)n1`, the TGI was 26.4 µM in the assay on U251 CNS; 25 µM in the assay with SK-MEL-5 melanoma; 26.3 µM with HCT-15 colon; 67.5 µM with CCRF-CEM leukemia; 72.4 µM in the assay on SR leukemia; 35.1 µM in the assay with HCT-116 colon. Also, the TGI in the assay with UACC-257 melanoma turned out to be 37.6 µM; with IGROV1 ovarian, 28.5 µM.
As for `CN=C(N)NC`, the TGI with U251 CNS, in the assay with SK-MEL-5 melanoma, with HCT-15 colon, in the assay on CCRF-CEM leukemia, in the assay on SR leukemia and in the assay on HCT-116 colon was above 100 µM in each case. Besides, the TGI with UACC-257 melanoma and in the assay with IGROV1 ovarian was above 100 µM in each case.
Take `CC(=O)OC1(C#N)CC2OC1C1N=NN(C(=O)OC(C)(C)C)C21` (stereo not drawn): the TGI in the assay with U251 CNS was above 100 µM; in the assay with SK-MEL-5 melanoma it was above 31.6 µM; with HCT-15 colon it was 22.5 µM; in the assay on CCRF-CEM leukemia, 83.8 µM; with SR leukemia, 57.8 µM; with HCT-116 colon, 15.5 µM. Besides, the TGI in the assay with UACC-257 melanoma and with IGROV1 ovarian was above 31.6 µM each time.
As to `CC(=O)Oc1cc(Cl)c(OC(C)=O)c2c(OC(C)=O)c(C)c(O[Si](C)(C)C(C)(C)C)cc12`, the TGI was determined as 6.78 µM in the assay on U251 CNS; 14.6 µM with SK-MEL-5 melanoma; 20.3 µM in the assay with HCT-15 colon; 13.5 µM in the assay on CCRF-CEM leukemia; 19.1 µM in the assay on SR leukemia; 13.6 µM in the assay with HCT-116 colon. The TGI turned out to be 11.6 µM with UACC-257 melanoma and 12.5 µM in the assay on IGROV1 ovarian.
In the case of `COC(=O)C1=C(O)c2cc3c(cc2[C@H](c2cc(OC)c(OC)c(OC)c2)C1)OCO3`, the TGI is above 100 µM in the assay with U251 CNS; 61.1 µM in the assay on SK-MEL-5 melanoma; above 100 µM in the assay with HCT-15 colon; above 100 µM in the assay with CCRF-CEM leukemia; above 100 µM with SR leukemia; above 100 µM in the assay with HCT-116 colon. For the same compound, the TGI in the assay on UACC-257 melanoma was found to be 95.1 µM; with IGROV1 ovarian, 89.4 µM.
Consider `O=c1c(-c2nc3ccccc3[nH]2)cc2ccccc2n1Cc1cn(Cc2ccccc2Cl)nn1`, for which the GI50 in the assay with U251 CNS was 2.41 µM; with CCRF-CEM leukemia, 8.58 µM; in the assay with SR leukemia it was 2.41 µM; in the assay on UACC-257 melanoma, 3.18 µM; with MDA-MB-435, 1.9 µM. The TGI with U251 CNS is 7.13 µM; with CCRF-CEM leukemia, above 100 µM; with SR leukemia, 8.64 µM; in the assay with UACC-257 melanoma, 12.6 µM; in the assay on MDA-MB-435, 3.93 µM.
Turning to `N/C(=N\N=C\c1ccc(O)c(O)c1)NO`, the TGI in the assay on U251 CNS, in the assay with SK-MEL-5 melanoma, with HCT-15 colon, in the assay with CCRF-CEM leukemia, in the assay with SR leukemia and with HCT-116 colon was above 100 µM each time. Further, the TGI in the assay with UACC-257 melanoma and in the assay on IGROV1 ovarian was above 100 µM throughout.
On to `C/C(=N\NS(=O)(=O)c1c(C)cc(C)cc1C)c1ccc[n+]([O-])n1`, for which the TGI was above 100 µM in the assay with U251 CNS; above 100 µM in the assay on SK-MEL-5 melanoma; 28.5 µM in the assay with HCT-15 colon; 18.2 µM with CCRF-CEM leukemia; 57.7 µM in the assay with SR leukemia; 25.7 µM in the assay with HCT-116 colon. Moreover, the TGI was determined as 22.7 µM with UACC-257 melanoma and 99.2 µM with IGROV1 ovarian.
For `CC(C)C1=CC23CCC4C(C)(C(=O)O)CCCC4(C)C2CC1C1C(=O)N(c2cccc(N4C(=O)C5C6CC7C8(C)CCCC(C)(C(=O)O)C8CCC7(C=C6C(C)C)C5C4=O)c2)C(=O)C13` (stereo not drawn), the TGI in the assay with U251 CNS came to 11 µM; with SK-MEL-5 melanoma it was 28.6 µM; with HCT-15 colon it was 26.9 µM; with CCRF-CEM leukemia, 26.2 µM; with SR leukemia it was 45 µM; with HCT-116 colon, 21.3 µM. This compound displayed a TGI with MDA-MB-435 of 15.2 µM.
Turning to `CCOc1ncnc2ccc(Cl)c(I)c12`, the TGI with U251 CNS, in the assay on SK-MEL-5 melanoma, in the assay with HCT-15 colon, in the assay with CCRF-CEM leukemia, with SR leukemia and with HCT-116 colon was above 100 µM throughout. In addition, the TGI with UACC-257 melanoma and in the assay with IGROV1 ovarian was above 100 µM each time.
On to `OCCCCCNc1ccnc2cc(Cl)ccc12`, for which the TGI with U251 CNS was above 100 µM; in the assay with SK-MEL-5 melanoma, above 100 µM; in the assay on HCT-15 colon it was above 100 µM; with CCRF-CEM leukemia, above 100 µM; in the assay on SR leukemia it was 40.8 µM; in the assay on HCT-116 colon, above 100 µM. Also, the TGI with UACC-257 melanoma and in the assay on IGROV1 ovarian was above 100 µM each time.
Regarding `CC(C)C1NC(=O)[C@H](C)OC(=O)[C@@H](C(C)C)NC(=O)[C@@H](C)OC(=O)C(C(C)C)NC(=O)[C@H](C)OC1=O` (stereo partly drawn), the TGI with U251 CNS was above 100 µM; in the assay with SK-MEL-5 melanoma, above 100 µM; in the assay on HCT-15 colon, 34.2 µM; with CCRF-CEM leukemia, above 100 µM; with SR leukemia it was 72.9 µM; with HCT-116 colon, above 100 µM. Moreover, the TGI with UACC-257 melanoma and in the assay on IGROV1 ovarian was above 100 µM each time.

(Values after PubChem BioAssay (NCI).)
